Data as given in ChEMBL document CHEMBL1671766, “In vitro activities of several antimicrobial agents against recently isolated and genotyped Chlamydia trachomatis urogenital serovars D through K” (2010).

How the values were obtained:
Assay type in all cases: functional, LLC-MK2
Chlamydia trachomatis [1] = test: Antimicrobial activity against Chlamydia trachomatis serovar J infected in […] monolayers assessed as reduction in number of microbial inclusions after 48 hrs
Chlamydia trachomatis [2] = test: Antimicrobial activity against Chlamydia trachomatis Bour serovar E infected in […] monolayers assessed as reduction in number of microbial inclusions after 48 hrs
Chlamydia trachomatis [3] = test: Antimicrobial activity against Chlamydia trachomatis serovar H infected in […] monolayers assessed as reduction in number of microbial inclusions after 48 hrs
Chlamydia trachomatis [4] = test: Bactericidal activity against Chlamydia trachomatis serovar G infected in […] monolayers assessed as reduction in number of microbial inclusions after 48 hrs
Chlamydia trachomatis [5] = test: Antimicrobial activity against Chlamydia trachomatis serovar G infected in […] monolayers assessed as reduction in number of microbial inclusions after 48 hrs
Chlamydia trachomatis [6] = test: Bactericidal activity against Chlamydia trachomatis serovar D infected in […] monolayers assessed as reduction in number of microbial inclusions after 48 hrs
Chlamydia trachomatis [7] = test: Antimicrobial activity against Chlamydia trachomatis serovar K infected in […] monolayers assessed as reduction in number of microbial inclusions after 48 hrs
Chlamydia trachomatis [8] = test: Bactericidal activity against Chlamydia trachomatis serovar F infected in […] monolayers assessed as reduction in number of microbial inclusions after 48 hrs
Chlamydia trachomatis [9] = test: Antimicrobial activity against Chlamydia trachomatis serovar E infected in […] monolayers assessed as reduction in number of microbial inclusions after 48 hrs
Chlamydia trachomatis [10] = test: Bactericidal activity against Chlamydia trachomatis serovar H infected in […] monolayers assessed as reduction in number of microbial inclusions after 48 hrs
Chlamydia trachomatis [11] = test: Antimicrobial activity against Chlamydia trachomatis UW-36 serovar J infected in […] monolayers assessed as reduction in number of microbial inclusions after 48 hrs; conditions: J/UW-36, 48 h
Chlamydia trachomatis [12] = test: Bactericidal activity against Chlamydia trachomatis serovar K infected in […] monolayers assessed as reduction in number of microbial inclusions after 48 hrs
Chlamydia trachomatis [13] = test: Antimicrobial activity against Chlamydia trachomatis Ic Cal-8 serovar D infected in […] monolayers assessed as reduction in number of microbial inclusions after 48 hrs
Chlamydia trachomatis [14] = test: Bactericidal activity against Chlamydia trachomatis serovar I infected in […] monolayers assessed as reduction in number of microbial inclusions after 48 hrs
Chlamydia trachomatis [15] = test: Bactericidal activity against Chlamydia trachomatis serovar J infected in […] monolayers assessed as reduction in number of microbial inclusions after 48 hrs
Chlamydia trachomatis [16] = test: Antimicrobial activity against Chlamydia trachomatis serovar F infected in […] monolayers assessed as reduction in number of microbial inclusions after 48 hrs
Chlamydia trachomatis [17] = test: Antimicrobial activity against Chlamydia trachomatis serovar I infected in […] monolayers assessed as reduction in number of microbial inclusions after 48 hrs
Chlamydia trachomatis [18] = test: Bactericidal activity against Chlamydia trachomatis serovar E infected in […] monolayers assessed as reduction in number of microbial inclusions after 48 hrs
Chlamydia trachomatis [19] = test: Antimicrobial activity against Chlamydia trachomatis 580 serovar H infected in […] monolayers assessed as reduction in number of microbial inclusions after 48 hrs
Chlamydia trachomatis [20] = test: Antimicrobial activity against Chlamydia trachomatis serovar D infected in […] monolayers assessed as reduction in number of microbial inclusions after 48 hrs

MIC (Chlamydia trachomatis [1]) | MIC (Chlamydia trachomatis [2]) | MIC (Chlamydia trachomatis [3]) | MIC (Chlamydia trachomatis [5]) | MIC (Chlamydia trachomatis [7]) | MIC (Chlamydia trachomatis [9]) | MIC (Chlamydia trachomatis [11]) | MIC (Chlamydia trachomatis [13]) | MIC (Chlamydia trachomatis [16]) | MIC (Chlamydia trachomatis [17]) | MIC (Chlamydia trachomatis [19]) | SMILES | MBC (Chlamydia trachomatis [4]) | MBC (Chlamydia trachomatis [6]) | MBC (Chlamydia trachomatis [8]) | MBC (Chlamydia trachomatis [10]) | MBC (Chlamydia trachomatis [12]) | MBC (Chlamydia trachomatis [13]) | MBC (Chlamydia trachomatis [14]) | MBC (Chlamydia trachomatis [15]) | MBC (Chlamydia trachomatis [18]) | other results
0.25 µg/mL | 0.25 µg/mL | 0.25 µg/mL | 0.5 µg/mL | 0.5 µg/mL | 0.25 µg/mL | 0.5 µg/mL | 0.25 µg/mL | 0.5 µg/mL | 0.5 µg/mL | 0.25 µg/mL | CC[C@H]1OC(=O)[C@H](C)[C@@H](O[C@H]2C[C@@](C)(OC)[C@@H](O)[C@H](C)O2)[C@H](C)[C@@H](O[C@@H]2O[C@H](C)C[C@H](N(C)C)[C@H]2O)[C@](C)(O)C[C@@H](C)CN(C)[C@H](C)[C@@H](O)[C@]1(C)O [AZITHROMYCIN] | 1 µg/mL | 0.5 µg/mL | 0.5 µg/mL | 1 µg/mL | 0.5 µg/mL | 1 µg/mL | 1 µg/mL | 0.5 µg/mL | 1 µg/mL | MIC (Chlamydia trachomatis [20]): 0.25 µg/mL
0.03 µg/mL | 0.03 µg/mL | 0.03 µg/mL | 0.03 µg/mL | 0.015 µg/mL | 0.015 µg/mL | 0.06 µg/mL | 0.03 µg/mL | 0.015 µg/mL | 0.015 µg/mL | 0.06 µg/mL | CC[C@H]1OC(=O)[C@H](C)[C@@H](O[C@H]2C[C@@](C)(OC)[C@@H](O)[C@H](C)O2)[C@H](C)[C@@H](O[C@@H]2O[C@H](C)C[C@H](N(C)C)[C@H]2O)[C@](C)(OC)C[C@@H](C)C(=O)[C@H](C)[C@@H](O)[C@]1(C)O [CLARITHROMYCIN] | 0.06 µg/mL | 0.03 µg/mL | 0.03 µg/mL | 0.06 µg/mL | 0.03 µg/mL | 0.06 µg/mL | 0.03 µg/mL | 0.06 µg/mL | 0.03 µg/mL | MIC (Chlamydia trachomatis [20]): 0.03 µg/mL
0.06 µg/mL | 0.03 µg/mL | 0.03 µg/mL | 0.03 µg/mL | 0.03 µg/mL | 0.03 µg/mL | 0.5 µg/mL | 0.03 µg/mL | 0.03 µg/mL | 0.06 µg/mL | 0.06 µg/mL | C[C@H]1c2cccc(O)c2C(=O)C2=C(O)[C@]3(O)C(=O)C(C(N)=O)=C(O)[C@@H](N(C)C)[C@@H]3[C@@H](O)[C@@H]21.O [DOXYCYCLINE] | 0.06 µg/mL | 0.06 µg/mL | 0.06 µg/mL | 0.06 µg/mL | 0.06 µg/mL | 0.06 µg/mL | 0.06 µg/mL | 0.06 µg/mL | 0.06 µg/mL | MIC (Chlamydia trachomatis [20]): 0.03 µg/mL
1 µg/mL | 0.5 µg/mL | 0.5 µg/mL | 0.5 µg/mL | 0.5 µg/mL | 0.5 µg/mL | 0.5 µg/mL | 0.5 µg/mL | 0.5 µg/mL | 0.5 µg/mL | 1 µg/mL | CC[C@H]1OC(=O)[C@H](C)[C@@H](O[C@H]2C[C@@](C)(OC)[C@@H](O)[C@H](C)O2)[C@H](C)[C@@H](O[C@@H]2O[C@H](C)C[C@H](N(C)C)[C@H]2O)[C@](C)(O)C[C@@H](C)C(=O)[C@H](C)[C@@H](O)[C@]1(C)O [ERYTHROMYCIN] | 1 µg/mL | 1 µg/mL | 1 µg/mL | 1 µg/mL | 1 µg/mL | 1 µg/mL | 1 µg/mL | 2 µg/mL | 1 µg/mL | MIC (Chlamydia trachomatis [20]): 0.5 µg/mL

SMILES | MIC (Chlamydia trachomatis [1]) | MIC (Chlamydia trachomatis [2]) | MIC (Chlamydia trachomatis [3]) | MIC (Chlamydia trachomatis [5]) | MIC (Chlamydia trachomatis [7]) | MIC (Chlamydia trachomatis [9]) | MIC (Chlamydia trachomatis [11]) | MIC (Chlamydia trachomatis [13]) | MIC (Chlamydia trachomatis [16]) | MIC (Chlamydia trachomatis [17]) | MIC (Chlamydia trachomatis [19]) | MBC (Chlamydia trachomatis [4]) | MBC (Chlamydia trachomatis [6]) | MBC (Chlamydia trachomatis [8]) | MBC (Chlamydia trachomatis [10]) | MBC (Chlamydia trachomatis [12]) | MBC (Chlamydia trachomatis [13]) | MBC (Chlamydia trachomatis [14]) | MBC (Chlamydia trachomatis [15]) | MBC (Chlamydia trachomatis [18]) | other results
C[C@H]1COc2c(N3CCN(C)CC3)c(F)cc3c(=O)c(C(=O)O)cn1c23.C[C@H]1COc2c(N3CCN(C)CC3)c(F)cc3c(=O)c(C(=O)O)cn1c23.O [LEVOFLOXACIN] | 0.5 µg/mL | 0.5 µg/mL | 0.5 µg/mL | 0.25 µg/mL | 0.5 µg/mL | 0.5 µg/mL | 0.5 µg/mL | 0.5 µg/mL | 0.5 µg/mL | 0.5 µg/mL | 0.5 µg/mL | 0.25 µg/mL | 0.5 µg/mL | 0.5 µg/mL | 0.5 µg/mL | 0.5 µg/mL | 0.5 µg/mL | 0.5 µg/mL | 0.5 µg/mL | 0.5 µg/mL | MBC (Chlamydia trachomatis [2]): 0.5 µg/mL; MBC (Chlamydia trachomatis [11]): 0.5 µg/mL; MBC (Chlamydia trachomatis [19]): 0.5 µg/mL; MIC (Chlamydia trachomatis [20]): 0.5 µg/mL
